Where two headings read alike, the source gives them in different places.
Test system: HCV replicon (5-2 Luc replicon-comprising cells)
Assay: HCV replicon assay (luciferase)
Format: cell-based, Hepatitis C virus
Settings: 5-2 Luc replicon cells, luciferase readout, read-out: Replicon IC50
From the text: In one embodiment, the inhibitory activity of the compounds can be confirmed in a replicon assay that assesses the ability of a test compound to block or inhibit HCV replication in replicon cells. One example of a suitable replicon assay is the liver cell-line Huh 7-based replicon assay described in Lohmann et al., 1999, Science 285:110–113. A specific example of this replicon assay which utilizes luciferase translation is provided in the Examples Section. In one embodiment of this assay, the amount of test compound that yields a 50% reduction in translation as compared to a control cell (IC50) may be determined.
The inhibitory activity of certain exemplary compounds of the invention was confirmed using an HCV replicon assay. The HCV replicon can include such features as the HCV 5′ untranslated region including the HCV IRES, the HCV 3′ untranslated region, selected HCV genes encoding HCV polypeptides, selectable markers, and a reporter gene such as luciferase, GFP, etc. In the assay, actively dividing 5-2 Luc replicon-comprising cells (obtained from Ralf Bartenschlager; see Lohmann et al., 1999, Science 285:110–113) were seeded at a density of between about 5,000 and 7,500 cells/well onto 96 well plates (about 90 μl of cells per well) and incubated at 37° C. and 5% CO2 for 24 hours. Then, the test compound (in a volume of about 10 μl) was added to the wells at various concentrations and the cells were incubated for an additional 24 hours before luciferase assay. Briefly, the Bright-Glo reagent was diluted 1:1 with PBS and 100 μl of diluted reagent was added to each well. After 5 min of incubation at room temperature, luciferin emission was quantified with a luminometer. In this assay, the amount of test compound that yielded a 50% reduction in luciferase activity (IC50) was determined.
In TABLE 1, a value of “+” indicates an IC50 of 10 μM or less in the specified assay; a value of “−” indicates an IC50 of greater than 10 μM in the specified assay.

Compound | IC50 | IC50 (Hepatitis C virus)
O=C(Nc1cccc(-c2cc(-c3c(Cl)cccc3N3CCN(C(=O)c4cnccn4)CC3)no2)c1)C(Cl)Cl [Compound 556] | < 10 µM | –
O=C(Nc1cccc(-c2cc(-c3c(Cl)cccc3N3CCN(c4ccc(C(F)(F)F)cn4)CC3)no2)c1)C(Cl)Cl [Compound 536] | < 10 µM | –
O=C(Nc1cccc(-c2noc(-c3c(Cl)cccc3Cl)n2)c1)C(Cl)Cl [Compound 87, 2,2-Dichloro-N-[3-[5-(2,6-dichlorophenyl)-3-(1,2,4-oxadiazolyl)]phenyl]Acetamide] | < 10 µM | –
NC(Cc1ccccc1)C(=O)N1CCN(c2cccc(Cl)c2-c2cc(-c3cccc(NC(=O)C(Cl)Cl)c3)on2)CC1 (stereo not shown) [Compound 541] | > 10 µM | –
O=C(Nc1cccc(-c2cc(-c3c(Cl)cccc3N3CCC(C(=O)N4CCOCC4)CC3)no2)c1)C(Cl)Cl [Compound 668] | > 10 µM | –
O=C(Nc1cccc(-c2cc(-c3c(Cl)cccc3N3CCN(c4cnccn4)CC3)no2)c1)C(Cl)Cl [Compound 515] | < 10 µM | –
O=C(Nc1cccc(-c2cc(-c3c(Cl)cccc3-n3ccnc3)no2)c1)C(Cl)Cl [Compound 117, 2,2-Dichloro-N-[3-[3-[2-chloro-6-(N-imidazolyl)phenyl]-5-isoxazolyl]phenyl]Acetamide] | – | < 10 µM
O=C(Nc1cccc(-c2cc(-c3c(Cl)cccc3N3CCCN(c4ccccn4)CC3)no2)c1)C(Cl)Cl [Compound 523] | < 10 µM | –
CS(=O)(=O)N1CCC(Oc2cccc(Cl)c2-c2cc(-c3cccc(NC(=O)C(Cl)Cl)c3)on2)CC1 [Compound 576] | < 10 µM | –
O=C(Nc1cc(-c2cc(-c3c(Cl)cccc3Cl)no2)ccc1OCCN1CCOCC1)C(Cl)Cl [Compound 171, 2,2-Dichloro-N-[3-[3-(2,6-dichlorophenyl)-5-isoxazolyl]-6-(N-morpholino-2-ethyleneoxy)phenyl]Acetamide] | > 10 µM | –
O=C(Nc1cccc(-c2cc(-c3c(Cl)cccc3OCc3ccncc3)no2)c1)C(Cl)Cl [Compound 604] | < 10 µM | –
O=C(Nc1cccc(-c2cc(-c3c(Cl)cccc3N3CCN(C(=O)c4ccccn4)CC3)no2)c1)C(Cl)Cl [Compound 513] | < 10 µM | –
CN(C)CCN1CCN(c2cccc(Cl)c2-c2cc(-c3cccc(NC(=O)C(Cl)Cl)c3)on2)CC1 [Compound 630] | < 10 µM | –
O=C(Nc1cccc(-c2cc(-c3c(Cl)cccc3-c3cccnc3)no2)c1)C(Cl)Cl [Compound 685] | < 10 µM | –
CC(C)(C)OC(=O)N1CCC(Oc2cccc(Cl)c2-c2cc(-c3cccc(NC(=O)C(Cl)Cl)c3)on2)C1 (stereo not shown) [Compound 592] | < 10 µM | –
O=C(Nc1cccc(-c2cc(-c3c(Cl)cccc3N3CCN(C(=O)c4ccc(-c5ccccc5)cc4)CC3)no2)c1)C(Cl)Cl [Compound 557] | > 10 µM | –
O=C(Nc1cccc(-c2cc(-c3c(Cl)cccc3N3CCN(C(=O)c4ccncc4)CC3)no2)c1)C(Cl)Cl [Compound 552] | < 10 µM | –
CN1CCN(c2cccc(Cl)c2-c2cc(-c3cccc(NC(=O)C(Cl)Cl)c3)on2)CC1 [Compound 99, 2,2-Dichloro-N-[3-[3-[2-chloro-6-(4-methylpiperazino)phenyl]-5-isoxazolyl]phenyl]Acetamide] | – | < 10 µM
CCN1CCN(c2cccc(Cl)c2-c2cc(-c3cccc(NC(=O)C(Cl)Cl)c3)on2)CC1 [Compound 627] | < 10 µM | –
O=C(Nc1cccc(-c2cc(-c3c(Cl)cccc3N3CCNCC3)no2)c1)C(Cl)Cl [Compound 511] | < 10 µM | –
CC(=O)N1CCC(Oc2cccc(Cl)c2-c2cc(-c3cccc(NC(=O)C(Cl)Cl)c3)on2)CC1 [Compound 577] | < 10 µM | –
O=C(Nc1cccc(-c2cc(-c3ccccc3CO)no2)c1)C(Cl)Cl [Compound 621] | < 10 µM | –
O=C(Nc1cccc(-c2cc(-c3c(Cl)cccc3N3CCN(Cc4ccncc4)CC3)no2)c1)C(Cl)Cl [Compound 650] | < 10 µM | –

Compound | IC50 | IC50 (Hepatitis C virus)
CN(Cc1cccnc1)c1cccc(Cl)c1-c1cc(-c2cccc(NC(=O)C(Cl)Cl)c2)on1 [Compound 635] | < 10 µM | –
O=C(Nc1cccc(-c2cc(-c3c(Cl)cccc3N3CCN4CCCC4C3)no2)c1)C(Cl)Cl (stereo not shown) [Compound 651] | < 10 µM | –
CCOC(=O)C1CCN(c2cccc(Cl)c2-c2cc(-c3cccc(NC(=O)C(Cl)Cl)c3)on2)CC1 [Compound 151, 2,2-Dichloro-N-[3-[3-[2-chloro-6-(4-carboethoxypiperidino)phenyl]-5-isoxazolyl]-phenyl]Acetamide] | – | > 10 µM
CCNC(=O)N1CCCC(Oc2cccc(Cl)c2-c2cc(-c3cccc(NC(=O)C(Cl)Cl)c3)on2)C1 (stereo not shown) [Compound 587] | < 10 µM | –
O=C(Nc1cccc(-c2cc(-c3c(Cl)cccc3N3CCN(C(=O)c4ccc(F)cc4)CC3)no2)c1)C(Cl)Cl [Compound 662] | < 10 µM | –
O=C(Nc1cccc(-c2cc(-c3c(Cl)cccc3N3CCN(CCc4ccccn4)CC3)no2)c1)C(Cl)Cl [Compound 653] | < 10 µM | –
CC(C)(C)OC(=O)c1cccc(Cl)c1-c1cc(-c2cccc(NC(=O)C(Cl)Cl)c2)on1 [Compound 686] | < 10 µM | –
[N-]=[N+]=Nc1cccc(Cl)c1-c1cc(-c2cccc(NC(=O)C(Cl)Cl)c2)on1 [Compound 512] | < 10 µM | –
CCCNC(=O)Oc1cccc(Cl)c1-c1cc(-c2cccc(NC(=O)C(Cl)Cl)c2)on1 [Compound 606] | < 10 µM | –
O=C(Nc1cccc(-c2cc(-c3c(Cl)cccc3N3CCC(O)CC3)no2)c1)C(Cl)Cl [Compound 528] | < 10 µM | –
O=C(Nc1cccc(-c2cc(-c3c(Cl)cccc3OCc3cccnc3)no2)c1)C(Cl)Cl [Compound 605] | < 10 µM | –
CC(C)N1CCN(c2cccc(Cl)c2-c2cc(-c3cccc(NC(=O)C(Cl)Cl)c3)on2)CC1 [Compound 632] | < 10 µM | –
O=C(Nc1cccc(-c2cc(-c3c(Cl)cccc3N3CCN(C(=O)Cc4ccccc4)CC3)no2)c1)C(Cl)Cl [Compound 533] | < 10 µM | –
O=C(Nc1cccc(-c2cc(-c3c(Cl)cccc3N3CCN(Cc4ccccc4)CC3)no2)c1)C(Cl)Cl [Compound 549] | < 10 µM | –
O=C(NC1CCN(c2cccc(Cl)c2-c2cc(-c3cccc(NC(=O)C(Cl)Cl)c3)on2)CC1)c1ccccn1 [Compound 544] | < 10 µM | –
NC1CCN(c2cccc(Cl)c2-c2cc(-c3cccc(NC(=O)C(Cl)Cl)c3)on2)C1 (stereo not shown) [Compound 504] | < 10 µM | –
O=C(Nc1cccc(-c2cc(-c3c(Cl)cccc3N3CCN(CCN4CCCC4)CC3)no2)c1)C(Cl)Cl [Compound 652] | < 10 µM | –
O=C(Nc1cccc(-c2cc(-c3c(Cl)cccc3OC(=O)N3CCOCC3)no2)c1)C(Cl)Cl [Compound 602] | < 10 µM | –
COC(=O)C1CC(Oc2cccc(Cl)c2-c2cc(-c3cccc(NC(=O)C(Cl)Cl)c3)on2)CN1C(=O)OC(C)(C)C (stereo not shown) [Compound 590] | < 10 µM | –
CC(=O)N1CCC(CCOc2cccc(Cl)c2-c2cc(-c3cccc(NC(=O)C(Cl)Cl)c3)on2)CC1 [Compound 645] | < 10 µM | –
Cc1cc(OCCN2CCOCC2)cc(C)c1-c1cc(-c2cccc(NC(=O)C(Cl)Cl)c2)on1 [Compound 23, 2,2-Dichloro-N-[3-[3-[2,6-dimethyl-4-(N-morpholino-2-ethyleneoxy)phenyl]-5-isoxazolyl]phenyl]Acetamide] | < 10 µM | –
O=C(Nc1cccc(-c2cc(-c3c(Cl)cccc3N3CCN(Cc4ccccn4)CC3)no2)c1)C(Cl)Cl [Compound 526] | < 10 µM | –
O=C(Nc1cccc(-c2cc(-c3c(Cl)cccc3N3CCC(NCc4ccccn4)CC3)no2)c1)C(Cl)Cl [Compound 588] | < 10 µM | –
